Laboratory results taken from BindingDB's records for doi:10.1016/j.bmc.2004.10.042 (Uppsala University, 2005).

Target: T1, Dimer of Gag-Pol polyprotein [489-587] (Human immunodeficiency virus 1, UniProt P12497)
T1 construct: 489-587
Experiment: Enzyme Inhibition Assay
Details: pH 5; 30 °C
Experimental: The effects of the inhibitors on the activity of HIV-1 proteinase was determined by a fluorometric assay with an internally quenched fluorescent peptide substrate. Measurements were performed in 96-well plates with a Fluoroskan plate reader. Excitation and emission wavelengths were 355 and 500 nm, respectively.Data were analyzed by nonlinear regression by using SIMFIT, and an equation for tightly binding inhibitors.

Row | Structure (SMILES) | Ki [nM]
1 | CC(=O)c1ccc(-c2ccccc2CN2C[C@H](O)[C@@H](O)CN(Cc3ccccc3-c3ccc(C(C)=O)cc3)S2(=O)=O)cc1 [(4S,5S)-2,7-bis({[2-(4-acetylphenyl)phenyl]methyl})-4,5-dihydroxy-1,2,7-thiadiazepane-1,1-dione] | 5300
2 | CCCCc1ccc(-c2ccccc2CN2C[C@H](O)[C@@H](O)CN(Cc3ccccc3-c3ccc(CCCC)cc3)S2(=O)=O)cc1 [(4S,5S)-2,7-bis({[2-(4-butylphenyl)phenyl]methyl})-4,5-dihydroxy-1,2,7-thiadiazepane-1,1-dione] | 1900
3 | O=S1(=O)N(Cc2ccccc2-c2cccc(C(F)(F)F)c2)C[C@H](O)[C@@H](O)CN1Cc1ccccc1-c1cccc(C(F)(F)F)c1 [(4S,5S)-4,5-dihydroxy-2,7-bis({2-[3-(trifluoromethyl)phenyl]phenyl}methyl)-1,2,7-thiadiazepane-1,1-dione] | 2400
4 | Cc1ccc(-c2ccccc2CN2C[C@H](O)[C@@H](O)CN(Cc3ccccc3-c3ccc(C)cc3)S2(=O)=O)cc1 [(4S,5S)-4,5-dihydroxy-2,7-bis({[2-(4-methylphenyl)phenyl]methyl})-1,2,7-thiadiazepane-1,1-dione] | 1500
5 | O=[N+]([O-])c1cccc(-c2ccccc2CN2C[C@H](O)[C@@H](O)CN(Cc3ccccc3-c3cccc([N+](=O)[O-])c3)S2(=O)=O)c1 [(4S,5S)-4,5-dihydroxy-2,7-bis({[2-(3-nitrophenyl)phenyl]methyl})-1,2,7-thiadiazepane-1,1-dione] | 7400
6 | CCS(=O)(=O)c1ccc(-c2ccccc2CN2C[C@H](O)[C@@H](O)CN(Cc3ccccc3-c3ccc(S(=O)(=O)CC)cc3)S2(=O)=O)cc1 [(4S,5S)-2,7-bis({2-[4-(ethanesulfonyl)phenyl]phenyl}methyl)-4,5-dihydroxy-1,2,7-thiadiazepane-1,1-dione] | 5200
7 | O=S1(=O)N(Cc2ccccc2-c2ccsc2)C[C@H](O)[C@@H](O)CN1Cc1ccccc1-c1ccsc1 [(4S,5S)-4,5-dihydroxy-2,7-bis({[2-(thiophen-3-yl)phenyl]methyl})-1,2,7-thiadiazepane-1,1-dione] | 2700
8 | CC(C)c1cccc(-c2ccccc2CN2C[C@H](O)[C@@H](O)CN(Cc3ccccc3-c3cccc(C(C)C)c3)S2(=O)=O)c1 [(4S,5S)-4,5-dihydroxy-2,7-bis({2-[3-(propan-2-yl)phenyl]phenyl}methyl)-1,2,7-thiadiazepane-1,1-dione] | 3200
9 | CSc1ccccc1-c1ccccc1CN1C[C@H](O)[C@@H](O)CN(Cc2ccccc2-c2ccccc2SC)S1(=O)=O [(4S,5S)-4,5-dihydroxy-2,7-bis({2-[2-(methylsulfanyl)phenyl]phenyl}methyl)-1,2,7-thiadiazepane-1,1-dione] | 1100
10 | O=S1(=O)N(Cc2ccccc2CCc2ccccc2)C[C@H](O)[C@@H](O)CN1Cc1ccccc1CCc1ccccc1 [(4S,5S)-4,5-dihydroxy-2,7-bis({[2-(2-phenylethyl)phenyl]methyl})-1,2,7-thiadiazepane-1,1-dione] | 3000
11 | O=S1(=O)N(Cc2ccccc2-c2ccc(F)cc2)C[C@H](O)[C@@H](O)CN1Cc1ccccc1-c1ccc(F)cc1 [(4S,5S)-2,7-bis({[2-(4-fluorophenyl)phenyl]methyl})-4,5-dihydroxy-1,2,7-thiadiazepane-1,1-dione] | 5300
12 | COc1ccc(-c2ccccc2CN2C[C@H](O)[C@@H](O)CN(Cc3ccccc3-c3ccc(OC)c(OC)c3)S2(=O)=O)cc1OC [(4S,5S)-2,7-bis({[2-(3,4-dimethoxyphenyl)phenyl]methyl})-4,5-dihydroxy-1,2,7-thiadiazepane-1,1-dione] | 9400
13 | Cc1cccc(-c2ccccc2CN2C[C@H](O)[C@@H](O)CN(Cc3ccccc3-c3cccc(C)c3)S2(=O)=O)c1 [(4S,5S)-4,5-dihydroxy-2,7-bis({[2-(3-methylphenyl)phenyl]methyl})-1,2,7-thiadiazepane-1,1-dione] | 2700
14 | O=S1(=O)N(Cc2ccccc2-c2ccccc2)C[C@H](O)[C@@H](O)CN1Cc1ccccc1-c1ccccc1 [(4S,5S)-4,5-dihydroxy-2,7-bis[(2-phenylphenyl)methyl]-1,2,7-thiadiazepane-1,1-dione] | 2500
15 | O=S1(=O)N(Cc2ccccc2-c2cc3ccccc3o2)C[C@H](O)[C@@H](O)CN1Cc1ccccc1-c1cc2ccccc2o1 [(4S,5S)-2,7-bis({[2-(1-benzofuran-2-yl)phenyl]methyl})-4,5-dihydroxy-1,2,7-thiadiazepane-1,1-dione] | 530
16 | COc1ccc(-c2ccccc2CN2C[C@H](O)[C@@H](O)CN(Cc3ccccc3-c3ccc(OC)cc3)S2(=O)=O)cc1 [(4S,5S)-4,5-dihydroxy-2,7-bis({[2-(4-methoxyphenyl)phenyl]methyl})-1,2,7-thiadiazepane-1,1-dione] | 9700
17 | O=S1(=O)N(Cc2ccccc2/C=C/c2ccccc2)C[C@H](O)[C@@H](O)CN1Cc1ccccc1/C=C/c1ccccc1 [(4S,5S)-4,5-dihydroxy-2,7-bis({2-[(E)-2-phenylethenyl]phenyl}methyl)-1,2,7-thiadiazepane-1,1-dione] | 2000
18 | O=S1(=O)N(Cc2ccccc2)C[C@H](O)[C@@H](O)CN1Cc1ccccc1 [(4S,5S)-2,7-dibenzyl-4,5-dihydroxy-1,2,7-thiadiazepane-1,1-dione] | > 20000
19 | O=S1(=O)N(Cc2ccccc2Cc2ccccc2)C[C@H](O)[C@@H](O)CN1Cc1ccccc1Cc1ccccc1 [(4S,5S)-2,7-bis[(2-benzylphenyl)methyl]-4,5-dihydroxy-1,2,7-thiadiazepane-1,1-dione] | 2500
20 | COc1ccccc1-c1ccccc1CN1C[C@H](O)[C@@H](O)CN(Cc2ccccc2-c2ccccc2OC)S1(=O)=O [(4S,5S)-4,5-dihydroxy-2,7-bis({[2-(2-methoxyphenyl)phenyl]methyl})-1,2,7-thiadiazepane-1,1-dione] | 5100
